Experimental data: PMC12015462, “Prioritization of novel anti-infective stilbene derivatives by combining metabolomic data organization and a stringent 3R-infection model in a knowledge graph” (RSC Advances, 2025)
pIC50: −log10 of the molar value. Where two headings read alike, the source gives them in different places.

Legend:
Assay type in all cases: cell-based
[1] = system: Mycobacterium marinum; test: Infection assay: intracellular M. marinum growth (luminescence) in D. discoideum; settings: for activity at 0.411523 µM / activity at 1.23457 µM / activity at 3.7037 µM / activity at 11.1111 µM / activity at 33.3333 µM / activity at 100 µM: 72 h; for activity at 0.411523 µM: conc 0.411522634 uM; for activity at 1.23457 µM: conc 1.234567901 uM; for activity at 3.7037 µM: conc 3.703703704 uM; for activity at 11.1111 µM: conc 11.11111111 uM; for activity at 33.3333 µM: conc 33.33333333 uM; for activity at 100 µM: conc 100 uM; for pIC50: interpolated between the two concentrations closest to residual growth 0.5, top concentration 100 μM
From the text: (§1) Since fractions were not weighed individually, the injection mass was used to calculate an average mass per fraction and thus a nominal mass concentration.

[2] = system: Dictyostelium discoideum; test: Infection assay: growth of the host amoeba D. discoideum (fluorescence) in infection; settings: for activity at 0.411523 µM / activity at 1.23457 µM / activity at 3.7037 µM / activity at 11.1111 µM / activity at 33.3333 µM / activity at 100 µM: 72 h; for IC50: read-out: IC50 Dd in infection (μM)
From the text: as §1

[3] = system: Mycobacterium marinum; test: Anti-biotic assay: M. marinum growth in broth (luminescence); settings: for activity at 0.411523 µM / activity at 1.23457 µM / activity at 3.7037 µM / activity at 11.1111 µM / activity at 33.3333 µM / activity at 100 µM: 72 h; for IC50: read-out: IC50 Mm in broth (μM)
Method: as §1
Plating bacteria and compounds or fractions was performed analogously to the infection assay described above. Bacteria growth was monitored with the Agilent BioTek H1 plate reader by recording luminescence at 32 °C.
The prepared plates were sealed and stored at 4 °C overnight. On the day of the experiment, nine 10 cm Petri dishes were infected (as described before) and grouped into three pools.

[4] = vehicle control set at 1, read-out: mean normalized residual growth, Mm in infection
[5] = vehicle control set at 1, read-out: median normalized residual growth, Mm in infection
[6] = read-out: mean normalized residual growth, Dd in infection
[7] = read-out: median normalized residual growth, Dd in infection
[8] = read-out: mean (normalised M. marinum growth, Mm in broth)
[9] = read-out: median (normalised M. marinum growth, Mm in broth)

| SMILES | activity at 0.411523 µM [1, 4] [%] | activity at 0.411523 µM [1, 5] [%] | activity at 1.23457 µM [1, 4] [%] | activity at 1.23457 µM [1, 5] [%] | activity at 3.7037 µM [1, 4] [%] | activity at 3.7037 µM [1, 5] [%] | activity at 11.1111 µM [1, 4] [%] | activity at 11.1111 µM [1, 5] [%] | activity at 33.3333 µM [1, 4] [%] | activity at 33.3333 µM [1, 5] [%] | activity at 100 µM [1, 4] [%] | activity at 100 µM [1, 5] [%] | pIC50 [1] | activity at 0.411523 µM [2, 6] [%] | activity at 1.23457 µM [2, 6] [%] | activity at 3.7037 µM [2, 6] [%] | activity at 11.1111 µM [2, 6] [%] | activity at 33.3333 µM [2, 6] [%] | activity at 100 µM [2, 6] [%] | activity at 0.411523 µM [2, 7] [%] | also measured |
| --- | --- | --- | --- | --- | --- | --- | --- | --- | --- | --- | --- | --- | --- | --- | --- | --- | --- | --- | --- | --- | --- |
| Oc1ccc(/C=C/c2cc(O)c3c(c2)O[C@@H](c2ccc(O)cc2)[C@@H]3c2cc(O)c3c(c2)O[C@H](c2ccc(O)cc2)[C@H]3c2cc(O)cc(O)c2)cc1 [Compound 6, (−)-Gnetin E] | 165 | 154 | 202 | 184 | 196 | 172 | 169 | 155 | 98.2 | 95.4 | 46.3 | 49.1 | 4.18 | 119 | 116 | 112 | 114 | 95.3 | 35.6 | 93.6 | activity at 1.23457 µM [2, 7]: 89.2%; activity at 3.7037 µM [2, 7]: 92%; activity at 11.1111 µM [2, 7]: 88.5%; activity at 33.3333 µM [2, 7]: 86.1%; activity at 100 µM [2, 7]: 56.8%; IC50 [2]: > 100 µM; activity at 0.411523 µM [3, 8]: 134%; activity at 1.23457 µM [3, 8]: 114%; activity at 3.7037 µM [3, 8]: 113%; activity at 11.1111 µM [3, 8]: 114%; activity at 33.3333 µM [3, 8]: 118%; activity at 100 µM [3, 8]: 110%; activity at 0.411523 µM [3, 9]: 135%; activity at 1.23457 µM [3, 9]: 109%; activity at 3.7037 µM [3, 9]: 114%; activity at 11.1111 µM [3, 9]: 114%; activity at 33.3333 µM [3, 9]: 119%; activity at 100 µM [3, 9]: 110%; IC50 [3]: > 100 µM |
| Oc1ccc(/C=C/c2cc(O)c3c(c2)O[C@H](c2ccc(O)cc2O)[C@@H]3c2cc(O)cc(O)c2)cc1 (relative stereo) [Compound 2, (+)-Gnetupendin C] | 112 | 122 | 145 | 143 | 154 | 147 | 167 | 167 | 109 | 105 | 27.8 | 35.5 | 4.18 | 94.2 | 97.6 | 98.8 | 105 | 101 | 114 | 101 | activity at 1.23457 µM [2, 7]: 91.8%; activity at 3.7037 µM [2, 7]: 86%; activity at 11.1111 µM [2, 7]: 76.8%; activity at 33.3333 µM [2, 7]: 74.6%; activity at 100 µM [2, 7]: 83.1%; IC50 [2]: > 100 µM; activity at 0.411523 µM [3, 8]: 97.4%; activity at 1.23457 µM [3, 8]: 103%; activity at 3.7037 µM [3, 8]: 113%; activity at 11.1111 µM [3, 8]: 109%; activity at 33.3333 µM [3, 8]: 110%; activity at 100 µM [3, 8]: 109%; activity at 0.411523 µM [3, 9]: 95.6%; activity at 1.23457 µM [3, 9]: 101%; activity at 3.7037 µM [3, 9]: 111%; activity at 11.1111 µM [3, 9]: 108%; activity at 33.3333 µM [3, 9]: 109%; activity at 100 µM [3, 9]: 109%; IC50 [3]: > 100 µM |
| Oc1ccc(/C=C/c2cc(O)c3c(c2)O[C@@H](c2ccc(O)cc2)[C@@H]3c2cc(O)c3c(c2)O[C@@H](c2ccc(O)cc2O)[C@H]3c2cc(O)cc(O)c2)cc1 [Compound 4, (−)-Gnetoline A] | 153 | 139 | 173 | 160 | 176 | 171 | 139 | 135 | 88.4 | 86.1 | 12.2 | 17.7 | 4.18 | 146 | 109 | 106 | 88.5 | 79 | -10.4 | 96.5 | activity at 1.23457 µM [2, 7]: 84.4%; activity at 3.7037 µM [2, 7]: 85.1%; activity at 11.1111 µM [2, 7]: 79.5%; activity at 33.3333 µM [2, 7]: 79.5%; activity at 100 µM [2, 7]: 38.1%; IC50 [2]: 66.7 µM; activity at 0.411523 µM [3, 8]: 115%; activity at 1.23457 µM [3, 8]: 113%; activity at 3.7037 µM [3, 8]: 113%; activity at 11.1111 µM [3, 8]: 112%; activity at 33.3333 µM [3, 8]: 110%; activity at 100 µM [3, 8]: 99.3%; activity at 0.411523 µM [3, 9]: 112%; activity at 1.23457 µM [3, 9]: 115%; activity at 3.7037 µM [3, 9]: 115%; activity at 11.1111 µM [3, 9]: 116%; activity at 33.3333 µM [3, 9]: 108%; activity at 100 µM [3, 9]: 99.5%; IC50 [3]: > 100 µM |
